Experimental data from PubChem BioAssay (NCI).
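A five-concentration, 48-hour dose response in 96-well plates underlies each endpoint, interpolated linearly between surrounding concentrations. GI50 is the concentration that inhibits growth by half. At the TGI there is no net growth.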

Experiments:
Assay in all cases: NCI anticancer screen, dose series, 48 h
[1] = test system: 786-0 renal
[2] = test system: A498 renal
[3] = test system: A549 NSCLC
[4] = test system: ACHN renal
[5] = test system: BT-549 breast
[6] = test system: CAKI-1 renal
[7] = test system: CCRF-CEM leukemia
[8] = test system: COLO 205 colon
[9] = test system: DU-145 prostate
[10] = test system: HCC-2998 colon
[11] = test system: HCT-116 colon
[12] = test system: HCT-15 colon
[13] = test system: HOP-62 NSCLC
[14] = test system: HOP-92 NSCLC
[15] = test system: HS 578T breast
[16] = test system: HT29 colon
[17] = test system: IGROV1 ovarian
[18] = test system: K-562 leukemia
[19] = test system: KM12 colon
[20] = test system: LOX IMVI melanoma
[21] = test system: M14 melanoma
[22] = test system: MALME-3M melanoma
[23] = test system: MCF7 breast
[24] = test system: MDA-MB-231 breast
[25] = test system: MDA-MB-435
[26] = test system: MOLT-4 leukemia
[27] = test system: NCI-H226 lung
[28] = test system: NCI-H23 lung
[29] = test system: NCI-H460 lung
[30] = test system: NCI-H522 lung
[31] = test system: NCI/ADR-RES ovarian
[32] = test system: OVCAR-3 ovarian
[33] = test system: OVCAR-4 ovarian
[34] = test system: OVCAR-5 ovarian
[35] = test system: OVCAR-8 ovarian
[36] = test system: PC-3 prostate
[37] = test system: RPMI-8226 leukemia
[38] = test system: RXF 393 renal
[39] = test system: SF-268 CNS
[40] = test system: SF-295 CNS
[41] = test system: SF-539 CNS
[42] = test system: SK-MEL-2 melanoma
[43] = test system: SK-MEL-28 melanoma
[44] = test system: SK-MEL-5 melanoma
[45] = test system: SK-OV-3 ovarian
[46] = test system: SN12C renal
[47] = test system: SNB-19 CNS
[48] = test system: SNB-75 CNS
[49] = test system: SR leukemia
[50] = test system: SW-620 colon
[51] = test system: T-47D breast
[52] = test system: TK-10 renal
[53] = test system: U251 CNS
[54] = test system: UACC-257 melanoma
[55] = test system: UACC-62 melanoma
[56] = test system: UO-31 renal
[57] = test system: EKVX NSCLC
[58] = test system: HL-60(TB) leukemia

For `O=C1C(Cl)=C(Nc2cccc(F)c2)C(=O)N1Cc1ccc(Cl)cc1`, the GI50 [1] was 0.305 µM, the TGI [1] was 3.98 µM and the GI50 [2] was 2.42 µM. The TGI [2] was 8.99 µM, the GI50 [3] was 1.73 µM and the TGI [3] was 16.9 µM. The GI50 [4] was 2.54 µM, the TGI [4] was 15.2 µM and the GI50 [5] was 0.841 µM. It also gave a TGI [5] of 13.4 µM, a GI50 [6] of 1.71 µM and a TGI [6] of 13.8 µM. The GI50 [7] was 0.118 µM, the TGI [7] was 11.1 µM and the GI50 [8] was 0.516 µM. It also gave a TGI [8] of 11.9 µM, a GI50 [9] of 2.67 µM and a TGI [9] of 8.44 µM. For the same molecule, the GI50 [10] was 0.935 µM, the TGI [10] was 4.88 µM and the GI50 [11] was 0.392 µM. For the same molecule, the TGI [11] was 2.7 µM, the GI50 [12] was 0.398 µM and the GI50 [13] was 0.974 µM. For the same molecule, the TGI [13] was 7.19 µM, the GI50 [14] was 11.4 µM and the TGI [14] was 26.2 µM. It also gave a GI50 [15] of 2.86 µM, a TGI [15] of 9.28 µM and a GI50 [16] of 0.911 µM. The TGI [16] was 12.9 µM, the GI50 [17] was 2.92 µM and the TGI [17] was 16.9 µM. For the same molecule, the GI50 [18] was 0.206 µM, the TGI [18] was over 32.1 µM and the GI50 [19] was 2.66 µM. For the same molecule, the TGI [19] was 19.1 µM, the GI50 [20] was 0.649 µM and the TGI [20] was 3.41 µM. It also gave a GI50 [21] of 1.2 µM, a TGI [21] of 4.35 µM and a GI50 [22] of 1.42 µM. The TGI [22] was 10.8 µM, the GI50 [23] was 1.06 µM and the TGI [23] was 7.91 µM. For the same molecule, the GI50 [24] was 0.242 µM, the TGI [24] was 4.7 µM and the GI50 [25] was 0.665 µM. It also gave a TGI [25] of 2.3 µM, a GI50 [26] of 0.506 µM and a TGI [26] of over 100 µM. For the same molecule, the GI50 [27] was 0.188 µM, the TGI [27] was 0.852 µM and the GI50 [28] was 0.832 µM. For the same molecule, the TGI [28] was 14.4 µM, the GI50 [29] was 1.08 µM and the GI50 [30] was 3.09 µM. For the same molecule, the TGI [30] was 13.3 µM, the GI50 [31] was 0.426 µM and the TGI [31] was 5.61 µM. It also gave a GI50 [32] of 1.19 µM, a TGI [32] of 6.84 µM and a GI50 [33] of 4.04 µM. It also gave a TGI [33] of 24.6 µM, a GI50 [34] of 4.58 µM and a TGI [34] of 22.4 µM. For the same molecule, the GI50 [35] was 0.759 µM, the TGI [35] was 8.83 µM and the GI50 [36] was 0.526 µM. For the same molecule, the TGI [36] was 4.53 µM, the GI50 [37] was 0.502 µM and the TGI [37] was 14.2 µM. For the same molecule, the GI50 [38] was 0.39 µM, the TGI [38] was 4.91 µM and the GI50 [39] was 1.43 µM. For the same molecule, the TGI [39] was 8.07 µM, the GI50 [40] was 1.16 µM and the TGI [40] was 10.9 µM. The GI50 [41] was 1.03 µM, the TGI [41] was 4.04 µM and the GI50 [42] was 5.96 µM. The TGI [42] was over 28.4 µM, the GI50 [43] was 2.96 µM and the TGI [43] was 20.6 µM. The GI50 [44] was 0.403 µM, the TGI [44] was 2.19 µM and the GI50 [45] was 2.59 µM. The TGI [45] was 17.6 µM, the GI50 [46] was 0.825 µM and the TGI [46] was 4.81 µM. It also gave a GI50 [47] of 2.57 µM, a TGI [47] of 16.1 µM and a GI50 [48] of 0.438 µM. For the same molecule, the TGI [48] was 7.63 µM, the GI50 [49] was 0.128 µM and the GI50 [50] was 0.531 µM. For the same molecule, the TGI [50] was 13 µM, the GI50 [51] was 3.57 µM and the TGI [51] was 27.7 µM. For the same molecule, the GI50 [52] was 5.7 µM, the TGI [52] was 19.3 µM and the GI50 [53] was 0.337 µM. The TGI [53] was over 32 µM, the GI50 [54] was 3.95 µM and the TGI [54] was 20.8 µM. The TGI [55] was 2.48 µM, the GI50 [56] was 3.69 µM and the TGI [56] was 35.9 µM.

`S=c1nc(N2CCCCC2)c2cn[nH]c2[nH]1` was tested, and the TGI [1] was over 100 µM, the TGI [2] was over 100 µM and the TGI [3] was over 100 µM. For the same molecule, the TGI [4] was over 100 µM, the TGI [5] was over 100 µM and the TGI [6] was over 100 µM. For the same molecule, the TGI [7] was over 100 µM, the TGI [8] was over 100 µM and the TGI [9] was over 100 µM. The TGI [57] was over 100 µM, the TGI [10] was over 100 µM and the TGI [11] was over 100 µM. It also gave a TGI [12] of over 100 µM, a TGI [58] of 69.9 µM and a TGI [13] of over 100 µM. For the same molecule, the TGI [15] was over 100 µM, the TGI [16] was over 100 µM and the TGI [17] was 56.5 µM. For the same molecule, the TGI [18] was over 100 µM, the TGI [19] was over 100 µM and the TGI [20] was over 100 µM. The TGI [21] was over 100 µM, the TGI [22] was over 100 µM and the TGI [23] was over 100 µM. For the same molecule, the TGI [24] was over 100 µM, the TGI [25] was over 100 µM and the TGI [27] was over 100 µM. For the same molecule, the TGI [28] was over 100 µM, the TGI [29] was over 100 µM and the TGI [30] was 41.4 µM. It also gave a TGI [31] of over 100 µM, a TGI [32] of over 100 µM and a TGI [33] of over 100 µM. It also gave a TGI [34] of over 100 µM, a TGI [35] of over 100 µM and a TGI [36] of over 100 µM. The TGI [37] was over 100 µM, the TGI [38] was over 100 µM and the TGI [39] was over 100 µM. The TGI [40] was over 100 µM, the TGI [41] was over 100 µM and the TGI [42] was 74.8 µM. For the same molecule, the TGI [43] was over 100 µM, the TGI [44] was over 100 µM and the TGI [46] was over 100 µM. The TGI [47] was over 100 µM, the TGI [48] was over 100 µM and the TGI [49] was 40.7 µM. It also gave a TGI [50] of over 100 µM, a TGI [51] of over 100 µM and a TGI [52] of over 100 µM. It also gave a TGI [53] of over 100 µM, a TGI [54] of over 100 µM and a TGI [55] of over 100 µM. For the same molecule, the TGI [56] was 77.9 µM.
